Values quoted from earlier work in US10413588B2, “Probiotic function of human intelectin” (Wisconsin Alumni Research Foundation, priority 2015, dated 2019).

Target: hIntL-1 (Homo sapiens, UniProt Q8WWA0)
Conditions: reported by Tsuji et al., 2001; read-out: apparent KD / apparent affinity for hIntL-1

hIntL-1, sequence (Q8WWA0 19-298): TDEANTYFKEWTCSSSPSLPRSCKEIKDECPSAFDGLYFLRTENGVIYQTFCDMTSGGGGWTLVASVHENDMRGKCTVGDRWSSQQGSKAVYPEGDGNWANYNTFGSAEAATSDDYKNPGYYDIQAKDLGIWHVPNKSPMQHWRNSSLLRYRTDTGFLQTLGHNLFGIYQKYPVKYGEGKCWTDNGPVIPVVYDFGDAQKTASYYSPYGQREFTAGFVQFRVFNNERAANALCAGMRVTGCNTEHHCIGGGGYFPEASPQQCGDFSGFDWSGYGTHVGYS

O=C[C@H](O)[C@H](O)[C@H](O)CO [D-ribose]
Kd: 5 mM
